# Results reported in ChEMBL document CHEMBL5724558, “Image-based profiling of drug vulnerabilities in CRC organoids” (2024).
# Values joined by “and” are separate entries in the source; they are usually repeats but may differ in a detail not shown here. Equal entries are not always repeated. Square brackets hold non-standard residues; d marks the D form. Peptide text beside a SMILES is read from it. Arg(Me) = CNC(=N)NCCC[C@H](N)C(=O)O; d3Pal = N[C@H](Cc1cccnc1)C(=O)O; d4Pal = N[C@H](Cc1ccncc1)C(=O)O; azaGly = NNC(=O)O
# What was measured:
# Type in all cases: functional, Homo sapiens
# Parameters in all cases: dose or concentration left out as unconfirmed
# Colon cancer organoid [1] = assay: (§1) Image-based profiling of donated chemical probes and chemogenomic kinase set in O06 CRC organoid. Image analysis is performed on the sum area metric, and the data were normalized to the DMSO control. After imaging the organoid viability is measured using the OneGloEX Luciferase Assay System. The normalized viability data and sum area are reported.
# Colon cancer organoid [2] = assay: as §1, with “O09” for “O06”
# Colon cancer organoid [3] = assay: as §1, with “O21” for “O06”
SMILES,Cell Viability (Colon cancer organoid [1]; Replication number 1),Cell Viability (Colon cancer organoid [1]; Replication number 2),Cell Viability (Colon cancer organoid [2]; Replication number 1),Cell Viability (Colon cancer organoid [2]; Replication number 2),Cell Viability (Colon cancer organoid [3]; Replication number 1),Cell Viability (Colon cancer organoid [3]; Replication number 2)
CN(C(=O)c1ccccc1)c1cc(N(C)c2ccc3c(c2)CCc2ccc(C(=O)NCCN4CCOCC4)cc2C3=O)ccc1F [FM-743],90.1876% and 101.781%,105.862% and 118.933%,89.1217% and 99.5999%,73.0037% and 91.594%,111.27% and 106.402%,83.0534% and 97.3827%
O=C(NCCN1CCOCC1)c1ccc2c(c1)C(=O)c1ccc(Nc3ccc(F)c(NC(=O)c4ccccc4)c3)cc1CC2 [FS-694],84.5729% and 99.5951%,109.979% and 139.596%,75.6733% and 93.7852%,52.7357% and 85.0515%,104.56% and 105.311%,87.9959% and 93.3039%
CC(C)(C)OC(=O)N1CCCC1CNC1CCC(c2cc(F)ccc2F)(S(=O)(=O)c2ccc(Cl)cc2)CC1 (centres undefined) [GSI-NC],66.8797% and 82.4356%,76.3317% and 68.2262%,125.581% and 90.7884%,108.329% and 85.8708%,89.6265% and 62.8719%,87.5663% and 80.102%
CC(=O)Nc1c(F)cc(C(=O)N[C@H]2CC[C@H](O)CC2)cc1O[C@@H](C)c1ccccc1 [GSK046],114.325% and 118.785%,117.277% and 127.102%,43.6665% and 86.4699%,69.7579% and 96.7486%,120.66% and 109.131%,123.541% and 110.129%
CNC(=O)c1cc(C(=O)NC2CC2)cn(Cc2ccccc2)c1=O [GSK620],87.0029% and 102.753%,87.2683% and 118.693%,52.8448% and 80.6552%,55.7609% and 83.862%,98.0477% and 88.9414%,114.221% and 102.991%
COCc1nc2cnc3cc(-c4c(C)noc4C)c(OC[C@H]4CCNC4)cc3c2n1[C@H](C)c1ccccc1 [GSK778],42.5585% and 78.7045%,45.6544% and 89.6204%,36.9836% and 58.5219%,32.5027% and 49.1673%,115.801% and 111.859%,99.2147% and 116.757%
Cc1cc2c(-c3ccco3)cnc(N[C@@H]3CCN(C)C[C@H]3C(=O)NC3CCCCC3)c2[nH]c1=O [GSK789],45.8732% and 77.9757%,46.7874% and 82.8928%,34.6914% and 67.3378%,49.9263% and 76.5266%,106.004% and 111.859%,101.857% and 104.521%
Cc1cc2c(-c3ccco3)cnc(N[C@H]3CCN(C)C[C@@H]3C(=O)NC3CCCCC3)c2[nH]c1=O [GSK791],106.466% and 102.024%,100.388% and 101.634%,46.4952% and 92.4722%,100.727% and 114.988%,103.348% and 100.946%,100.095% and 111.149%
CNC(=O)c1cc(C(=O)N[C@H]2[C@@H]3COC[C@@H]32)cc2c1O[C@@H](CF)[C@@H]2c1ccccc1 [GSK943],114.013% and 124.372%,80.0063% and 92.9841%,64.3424% and 103.726%,87.7458% and 93.3783%,93.124% and 115.133%,103.782% and 108.09%
CNC(=O)c1cc(C(=O)N[C@H]2[C@@H]3COC[C@@H]32)cc2c1O[C@H](CF)[C@H]2c1ccccc1 [GSK973],85.8672% and 112.47%,108.347% and 115.089%,33.6063% and 74.8406%,64.0142% and 82.8707%,110.582% and 117.861%,99.9706% and 95.8532%
O=C(O)c1ccc(-c2c[nH]c3ncc(-c4ccccc4)cc23)cc1C1CCCC1 [GSK-650394],96.4947% and 115.731%,112.452% and 109.917%,86.6407% and 76.4679%,121.957% and 104.927%,104.512% and 92.3751%,123.401% and 109.943%
COc1ccc(COc2ccc(Cc3cnc(N)nc3N)cc2OC)cc1 [GW632580X],58.2611% and 105.272%,114.527% and 102.005%,97.2833% and 91.2576%,140.582% and 107.98%,84.7531% and 94.7735%,111.284% and 94.9982%
CCOc1cc2ncc(C#N)c(Nc3ccc(OCc4cccc(F)c4)c(Cl)c3)c2cc1NC(=O)/C=C/CN(C)C [HKI-357],2.387% and 8.346%,3.908% and 9.337%,14.2588% and 15.3343%,12.8508% and 14.4694%,27.4097% and 41.0314%,48.8208% and 68.5139%
Cc1c(Oc2ccc(F)cc2)c(OC(C)C)nn1-c1ccc(C2CC2)cn1 [IPP/CNRS-A019],86.662% and 99.3522%,111.4% and 120.615%,105.275% and 104.102%,106.079% and 88.8184%,82.2152% and 84.0306%,88.4065% and 90.7546%
COCCc1ccc(-c2c(C)nc3c(N4CCOCC4)ccnn23)cn1 [JNJ-42396302],105.08% and 93.5817%,103.056% and 100.227%,173.111% and 114.826%,149.141% and 104.184%,87.7084% and 77.6404%,105.989% and 98.0422%
COc1nc2ccc([C@@](O)(c3ccccc3)C3CCN(C(C)=O)CC3)cc2c(Cl)c1Cc1ccc(-n2cccn2)cc1 [JNJ-54119936],95.4238% and 127.913%,99.5018% and 98.8422%,195.654% and 100.967%,202.641% and 113.341%,91.3508% and 107.676%,118.142% and 99.7424%
CC(=O)Nc1ncc(CN2CCC[C@H](Cc3cc(C)nc(C)c3)C2)s1 [JNJ-65355394],89.0088% and 111.578%,103.026% and 113.793%,144.44% and 104.679%,146.748% and 114.826%,79.2381% and 103.709%,88.6271% and 113.344%
CC(=O)Nc1nc(CN2CCC[C@H](Cc3cc(C)nc(C)c3)C2)cs1 [JNJ-73924149],110.009% and 115.731%,115.696% and 107.702%,161.492% and 89.8313%,217.991% and 98.2452%,83.219% and 91.2416%,110.349% and 95.2087%
N#CN1CC[C@@H](C(=O)Nc2nc3c(s2)CN(C(=O)CN=[N+]=[N-])CC3)C1 [JYQ88],45.8886% and 74.332%,68.3691% and 90.3412%,58.2871% and 66.775%,121.196% and 102.102%,106.224% and 86.2132%,132.659% and 94.3236%
CNC(=N)NCCC[C@H](NC(=O)[C@H](CC(C)C)NC(=O)NNC(=O)[C@H](Cc1ccccc1)NC(=O)[C@H](CO)NC(=O)[C@H](CC(N)=O)NC(=O)[C@@H](Cc1ccncc1)NC(=O)[C@H](N)Cc1ccc(O)cc1)C(=O)N[C@@H](Cc1ccccc1)C(N)=O [KISS1-305] (H-[dY][d4Pal]NSF[azaGly]L[Arg(Me)]F-NH2),103.915% and 128.337%,108.799% and 104.471%,111.929% and 98.6727%,102.809% and 106.608%,121.353% and 98.3829%,105.015% and 111.735%
CNC(=N)NCCC[C@H](NC(=O)[C@H](CC(C)C)NC(=O)NNC(=O)[C@H](Cc1ccccc1)NC(=O)[C@H](CO)NC(=O)[C@H](CC(N)=O)NC(=O)[C@@H](Cc1cccnc1)NC(=O)[C@H](N)Cc1ccc(O)cc1)C(=O)NCC(N)=O [KISS1-543] (H-[dY][d3Pal]NSF[azaGly]L[Arg(Me)]G-NH2),118.716% and 117.33%,90.7753% and 88.3624%,107.101% and 81.2318%,83.0393% and 106.024%,119.966% and 118.758%,94.392% and 98.4694%
C[C@]1(O)C[C@@H](c2nc(-c3ccc4ccc(-c5ccccc5)nc4c3)c3c(N)nccn32)C1 [LINSITINIB],20.2503% and 50.5216%,16.9529% and 40.5141%,48.5771% and 41.3901%,29.8323% and 45.6217%,65.7988% and 93.6585%,45.8203% and 78.3015%
O=C(NOC[C@H](O)CO)c1ccc(F)c(F)c1Nc1ccc(I)cc1F [MIRDAMETINIB],3.1671% and 12.2187%,2.358% and 7.568%,6.019% and 17.678%,3.596% and 12.9307%,22.725% and 32.892%,19.7018% and 35.9842%
CN([C@@H]1CCc2c(CC(=O)O)c3ccccc3n2C1)S(=O)(=O)c1ccc(F)cc1 [MK-7246],103.187% and 97.4239%,129.375% and 117.264%,131.189% and 119.936%,71.8556% and 75.9401%,86.5772% and 112.354%,98.7828% and 96.4286%
